Bounds are passed on as bounds.

In this experiment the target is T1, hPASK (Homo sapiens, UniProt Q96RG2).
T1 construct: IC50 Kinase Domain; purchased Invitrogen
Briefly: Biochemical assay for hPASK activity (PAS kinase FRET assay; IC50 kinase domain). The note with it: PASK kinase domain. The protocol: Biochemical Assay for hPASK Activity
One assay for purified hPASK activity utilizes the Kinase-Glo Luminescent Kinase Assay (Promega), which quantifies the amount of ATP remaining in solution following kinase reaction. The assay is carried out in a 96-well plate format and is performed by adding a volume of Kinase-Glo Reagent (Promega, catalog #V3771) equal to the volume of solution in the well of a completed kinase reaction. Kinase-Glo reagent contains Luciferase and its substrate. After addition to a kinase reaction it allows to measure luminescence. The amount of ATP left in solution at the time of Kinase-Glo Plus addition is directly proportional to the luminescence that is measured in each well, and inversely correlated with kinase activity.
Purified hPASK from insect cells (0.02 μg) is added to a 50 μL reaction mix containing 40 mM HEPES (pH 7.0), 100 mM KCl, 5 mM MgCl2, 1 mM DTT and 1 μg of MBP protein. […] The luminescence is measured as soon as 10 minutes after Kinase-Glo reagent is added. […]
The aim of the FRET assay is to determine the inhibition potential of test compounds on targeted kinase. This assay platform provides a homogenous screening method for measuring kinase activity by quantitating the amount of phospho-substrate in solution following a kinase reaction. […]

T1 sequence (Q96RG2 999-1251 limits assumed): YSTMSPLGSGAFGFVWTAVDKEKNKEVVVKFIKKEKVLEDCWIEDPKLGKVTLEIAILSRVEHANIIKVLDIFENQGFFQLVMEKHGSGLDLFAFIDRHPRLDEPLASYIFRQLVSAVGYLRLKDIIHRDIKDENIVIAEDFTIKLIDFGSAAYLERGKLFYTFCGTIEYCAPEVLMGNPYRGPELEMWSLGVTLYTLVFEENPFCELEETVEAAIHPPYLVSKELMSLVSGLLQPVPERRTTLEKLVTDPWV

Usually IC50 stands for the midpoint of a concentration-inhibition curve. Read a high IC50 as weaker potency in that assay. With `O=C(O)c1ccc2c(c1)cc(-c1ccc(F)cc1)n2-c1ccc(F)cc1` [Example 1, 1,2-Bis(4-fluorophenyl)-1H-indole-5-carboxylic acid], the IC50 is at most 10 µM.
In the case of `O=C(O)/C=C/c1cnc(-c2ccc(F)cc2)c(-c2ccc(F)cc2)n1` [Example 2, (E)-3-(5,6-bis(4-fluorophenyl)pyrazin-2-yl)acrylic acid] it was at most 10 µM.

Values taken from patent US9675584B2, “Substituted indoles for the inhibition of PASK” (BioEnergenix, LLC, priority 2011, dated 2017).
